# According to the CheMixHub viscosity set:
# ± gives the uncertainty stated by the source.
# Experiment: xn = mol fraction of the nth substance listed
smiles,measurement,setting,value
CC#N + O,viscosity,"293.15 K, 101 kPa, x1 = 0.032",1.095 ± 0.019 mPa·s
same,viscosity,"293.15 K, 101 kPa, x1 = 0.057",1.11 ± 0.019 mPa·s
same,viscosity,"293.15 K, 101 kPa, x1 = 0.097",1.103 ± 0.019 mPa·s
same,viscosity,"293.15 K, 101 kPa, x1 = 0.154",1.023 ± 0.018 mPa·s
same,viscosity,"293.15 K, 101 kPa, x1 = 0.2",0.963 ± 0.017 mPa·s
same,viscosity,"293.15 K, 101 kPa, x1 = 0.395",0.723 ± 0.013 mPa·s
same,viscosity,"293.15 K, 101 kPa, x1 = 0.596",0.516 ± 0.01 mPa·s
same,viscosity,"293.15 K, 101 kPa, x1 = 0.8",0.413 ± 0.009 mPa·s
same,viscosity,"293.15 K, 101.33 kPa, x1 = 0.03",1.091 ± 0.01 mPa·s
same,viscosity,"293.15 K, 101.33 kPa, x1 = 0.06",1.124 ± 0.01 mPa·s
same,viscosity,"293.15 K, 101.33 kPa, x1 = 0.12",1.105 ± 0.01 mPa·s
same,viscosity,"293.15 K, 101.33 kPa, x1 = 0.22",1.029 ± 0.0093 mPa·s
same,viscosity,"293.15 K, 101.33 kPa, x1 = 0.29",0.9338 ± 0.0084 mPa·s
same,viscosity,"293.15 K, 101.33 kPa, x1 = 0.37",0.7979 ± 0.0072 mPa·s
same,viscosity,"293.15 K, 101.33 kPa, x1 = 0.43",0.722 ± 0.0066 mPa·s
same,viscosity,"293.15 K, 101.33 kPa, x1 = 0.61",0.5948 ± 0.0054 mPa·s
same,viscosity,"293.15 K, 101.33 kPa, x1 = 0.7",0.5389 ± 0.0049 mPa·s
same,viscosity,"293.15 K, 101.33 kPa, x1 = 0.87",0.4657 ± 0.0043 mPa·s
same,viscosity,"298.15 K, 101 kPa, x1 = 0.046",0.867 ± 0.009 mPa·s
same,viscosity,"298.15 K, 101 kPa, x1 = 0.1",0.862 ± 0.009 mPa·s
same,viscosity,"298.15 K, 101 kPa, x1 = 0.2",0.858 ± 0.009 mPa·s
same,viscosity,"298.15 K, 101 kPa, x2 = 0.2626",0.42 ± 0.005 mPa·s
same,viscosity,"298.15 K, 101 kPa, x2 = 0.4466",0.517 ± 0.005 mPa·s
same,viscosity,"298.15 K, 101 kPa, x2 = 0.4952",0.554 ± 0.006 mPa·s
same,viscosity,"298.15 K, 101 kPa, x2 = 0.6032",0.651 ± 0.007 mPa·s
same,viscosity,"298.15 K, 101 kPa, x2 = 0.613",0.66 ± 0.007 mPa·s
same,viscosity,"298.15 K, 101 kPa, x2 = 0.6508",0.669 ± 0.007 mPa·s
same,viscosity,"298.15 K, 101 kPa, x2 = 0.7029",0.754 ± 0.008 mPa·s
same,viscosity,"298.15 K, 101 kPa, x2 = 0.7445",0.801 ± 0.008 mPa·s
same,viscosity,"298.15 K, 101 kPa, x2 = 0.7543",0.815 ± 0.008 mPa·s
same,viscosity,"298.15 K, 101.3 kPa, x1 = 0.025",0.9497 ± 0.039 mPa·s
same,viscosity,"298.15 K, 101.3 kPa, x1 = 0.05",0.9779 ± 0.04 mPa·s
same,viscosity,"298.15 K, 101.3 kPa, x1 = 0.075",0.9826 ± 0.04 mPa·s
same,viscosity,"298.15 K, 101.3 kPa, x1 = 0.1",0.9704 ± 0.04 mPa·s
same,viscosity,"298.15 K, 101.3 kPa, x1 = 0.2019",0.8706 ± 0.037 mPa·s
same,viscosity,"298.15 K, 101.33 kPa, x2 = 0.1028",0.375 ± 0.011 mPa·s
same,viscosity,"298.15 K, 101.33 kPa, x2 = 0.2071",0.402 ± 0.012 mPa·s
same,viscosity,"298.15 K, 101.33 kPa, x2 = 0.297",0.436 ± 0.013 mPa·s
same,viscosity,"298.15 K, 101.33 kPa, x2 = 0.4021",0.495 ± 0.014 mPa·s
same,viscosity,"298.15 K, 101.33 kPa, x2 = 0.4985",0.563 ± 0.015 mPa·s
same,viscosity,"298.15 K, 101.33 kPa, x2 = 0.6057",0.656 ± 0.017 mPa·s
same,viscosity,"298.15 K, 101.33 kPa, x2 = 0.6987",0.75 ± 0.019 mPa·s
same,viscosity,"298.15 K, 101.33 kPa, x2 = 0.7843",0.842 ± 0.021 mPa·s
same,viscosity,"298.15 K, 101.33 kPa, x2 = 0.8773",0.94 ± 0.023 mPa·s
same,viscosity,"303.15 K, 101 kPa, x1 = 0.032",0.861 ± 0.015 mPa·s
same,viscosity,"303.15 K, 101 kPa, x1 = 0.0498",0.8684 ± 0.0055 mPa·s
same,viscosity,"303.15 K, 101 kPa, x1 = 0.057",0.872 ± 0.015 mPa·s
same,viscosity,"303.15 K, 101 kPa, x1 = 0.065",0.8736 ± 0.0056 mPa·s
same,viscosity,"303.15 K, 101 kPa, x1 = 0.084",0.8728 ± 0.0056 mPa·s
same,viscosity,"303.15 K, 101 kPa, x1 = 0.097",0.868 ± 0.015 mPa·s
same,viscosity,"303.15 K, 101 kPa, x1 = 0.1498",0.8314 ± 0.0053 mPa·s
same,viscosity,"303.15 K, 101 kPa, x1 = 0.154",0.815 ± 0.015 mPa·s
same,viscosity,"303.15 K, 101 kPa, x1 = 0.2",0.774 ± 0.014 mPa·s
same,viscosity,"303.15 K, 101 kPa, x1 = 0.2534",0.7376 ± 0.0048 mPa·s
same,viscosity,"303.15 K, 101 kPa, x1 = 0.3831",0.6065 ± 0.0041 mPa·s
same,viscosity,"303.15 K, 101 kPa, x1 = 0.395",0.607 ± 0.011 mPa·s
same,viscosity,"303.15 K, 101 kPa, x1 = 0.5071",0.5088 ± 0.0036 mPa·s
same,viscosity,"303.15 K, 101 kPa, x1 = 0.596",0.449 ± 0.009 mPa·s
same,viscosity,"303.15 K, 101 kPa, x1 = 0.6075",0.4532 ± 0.0032 mPa·s
same,viscosity,"303.15 K, 101 kPa, x1 = 0.7039",0.4039 ± 0.003 mPa·s
same,viscosity,"303.15 K, 101 kPa, x1 = 0.8",0.372 ± 0.008 mPa·s
same,viscosity,"303.15 K, 101 kPa, x1 = 0.8042",0.3676 ± 0.0028 mPa·s
same,viscosity,"303.15 K, 101 kPa, x1 = 0.894",0.3442 ± 0.0027 mPa·s
same,viscosity,"308.15 K, 101 kPa, x1 = 0.046",0.707 ± 0.008 mPa·s
same,viscosity,"308.15 K, 101 kPa, x1 = 0.0498",0.7729 ± 0.005 mPa·s
same,viscosity,"308.15 K, 101 kPa, x1 = 0.065",0.7826 ± 0.0051 mPa·s
same,viscosity,"308.15 K, 101 kPa, x1 = 0.084",0.7812 ± 0.0051 mPa·s
same,viscosity,"308.15 K, 101 kPa, x1 = 0.1",0.705 ± 0.008 mPa·s
same,viscosity,"308.15 K, 101 kPa, x1 = 0.1498",0.7485 ± 0.0049 mPa·s
same,viscosity,"308.15 K, 101 kPa, x1 = 0.2",0.697 ± 0.008 mPa·s
same,viscosity,"308.15 K, 101 kPa, x1 = 0.2534",0.67 ± 0.0045 mPa·s
same,viscosity,"308.15 K, 101 kPa, x1 = 0.3831",0.5596 ± 0.0038 mPa·s
same,viscosity,"308.15 K, 101 kPa, x1 = 0.5071",0.4711 ± 0.0033 mPa·s
same,viscosity,"308.15 K, 101 kPa, x1 = 0.6075",0.4236 ± 0.0031 mPa·s
same,viscosity,"308.15 K, 101 kPa, x1 = 0.7039",0.3804 ± 0.0028 mPa·s
same,viscosity,"308.15 K, 101 kPa, x1 = 0.8042",0.3486 ± 0.0027 mPa·s
same,viscosity,"308.15 K, 101 kPa, x1 = 0.894",0.3278 ± 0.0026 mPa·s
same,viscosity,"313.15 K, 101 kPa, x1 = 0.032",0.698 ± 0.013 mPa·s
same,viscosity,"313.15 K, 101 kPa, x1 = 0.0498",0.6998 ± 0.0046 mPa·s
same,viscosity,"313.15 K, 101 kPa, x1 = 0.057",0.707 ± 0.013 mPa·s
same,viscosity,"313.15 K, 101 kPa, x1 = 0.065",0.7058 ± 0.0047 mPa·s
same,viscosity,"313.15 K, 101 kPa, x1 = 0.084",0.7062 ± 0.0047 mPa·s
same,viscosity,"313.15 K, 101 kPa, x1 = 0.097",0.707 ± 0.013 mPa·s
same,viscosity,"313.15 K, 101 kPa, x1 = 0.1498",0.6782 ± 0.0045 mPa·s
same,viscosity,"313.15 K, 101 kPa, x1 = 0.154",0.668 ± 0.012 mPa·s
same,viscosity,"313.15 K, 101 kPa, x1 = 0.2",0.641 ± 0.012 mPa·s
same,viscosity,"313.15 K, 101 kPa, x1 = 0.2534",0.612 ± 0.0041 mPa·s
same,viscosity,"313.15 K, 101 kPa, x1 = 0.3831",0.5157 ± 0.0036 mPa·s
same,viscosity,"313.15 K, 101 kPa, x1 = 0.395",0.516 ± 0.01 mPa·s
same,viscosity,"313.15 K, 101 kPa, x1 = 0.5071",0.441 ± 0.0032 mPa·s
same,viscosity,"313.15 K, 101 kPa, x1 = 0.596",0.399 ± 0.008 mPa·s
same,viscosity,"313.15 K, 101 kPa, x1 = 0.6075",0.3978 ± 0.0029 mPa·s
same,viscosity,"313.15 K, 101 kPa, x1 = 0.7039",0.3598 ± 0.0027 mPa·s
same,viscosity,"313.15 K, 101 kPa, x1 = 0.8",0.34 ± 0.007 mPa·s
same,viscosity,"313.15 K, 101 kPa, x1 = 0.8042",0.3318 ± 0.0026 mPa·s
same,viscosity,"313.15 K, 101 kPa, x1 = 0.894",0.3132 ± 0.0025 mPa·s
same,viscosity,"318.15 K, 101 kPa, x1 = 0.046",0.584 ± 0.008 mPa·s
same,viscosity,"318.15 K, 101 kPa, x1 = 0.0498",0.635 ± 0.0043 mPa·s
same,viscosity,"318.15 K, 101 kPa, x1 = 0.065",0.6402 ± 0.0043 mPa·s
same,viscosity,"318.15 K, 101 kPa, x1 = 0.084",0.6409 ± 0.0043 mPa·s
same,viscosity,"318.15 K, 101 kPa, x1 = 0.1",0.58 ± 0.008 mPa·s
same,viscosity,"318.15 K, 101 kPa, x1 = 0.1498",0.6185 ± 0.0042 mPa·s
same,viscosity,"318.15 K, 101 kPa, x1 = 0.2",0.578 ± 0.008 mPa·s
same,viscosity,"318.15 K, 101 kPa, x1 = 0.2534",0.5635 ± 0.0039 mPa·s
same,viscosity,"318.15 K, 101 kPa, x1 = 0.3831",0.4801 ± 0.0034 mPa·s
same,viscosity,"318.15 K, 101 kPa, x1 = 0.5071",0.4101 ± 0.003 mPa·s
same,viscosity,"318.15 K, 101 kPa, x1 = 0.6075",0.3754 ± 0.0028 mPa·s
same,viscosity,"318.15 K, 101 kPa, x1 = 0.7039",0.3408 ± 0.0026 mPa·s
same,viscosity,"318.15 K, 101 kPa, x1 = 0.894",0.2996 ± 0.0024 mPa·s
same,viscosity,"323.15 K, 101 kPa, x1 = 0.032",0.579 ± 0.011 mPa·s
same,viscosity,"323.15 K, 101 kPa, x1 = 0.0498",0.5802 ± 0.004 mPa·s
same,viscosity,"323.15 K, 101 kPa, x1 = 0.057",0.587 ± 0.011 mPa·s
same,viscosity,"323.15 K, 101 kPa, x1 = 0.097",0.589 ± 0.011 mPa·s
same,viscosity,"323.15 K, 101 kPa, x1 = 0.154",0.561 ± 0.011 mPa·s
same,viscosity,"323.15 K, 101 kPa, x1 = 0.2",0.54 ± 0.01 mPa·s
same,viscosity,"323.15 K, 101 kPa, x1 = 0.395",0.447 ± 0.009 mPa·s
same,viscosity,"323.15 K, 101 kPa, x1 = 0.596",0.356 ± 0.008 mPa·s
same,viscosity,"323.15 K, 101 kPa, x1 = 0.8",0.312 ± 0.007 mPa·s
